Measurements: article PMC12442448, “A third type of PETase from the marine Halopseudomonas lineage” (Protein Science : A Publication of the Protein Society, 2025)

Molecular target: T1, HaloPETase1 (Halopseudomonas pachastrellae, UniProt A0A1S8DDV9)
T1 construct: gene BXT89_15940; N-terminal signal peptide removed; N-10xHis-SUMO tag cut with SenP2 (tag kept in agar-plate screen); extra N-terminal Ser and C-terminal Ala from FX cloning; E. coli Shuffle T7
T1 sequence (A0A1S8DDV9 24-289): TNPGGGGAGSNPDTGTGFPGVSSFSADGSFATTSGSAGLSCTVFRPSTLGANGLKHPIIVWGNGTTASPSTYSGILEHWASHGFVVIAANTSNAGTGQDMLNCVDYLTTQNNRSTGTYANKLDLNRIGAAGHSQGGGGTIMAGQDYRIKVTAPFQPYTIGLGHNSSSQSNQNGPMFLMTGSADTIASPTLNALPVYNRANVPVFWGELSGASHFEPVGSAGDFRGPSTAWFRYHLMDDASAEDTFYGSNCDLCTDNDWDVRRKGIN
Assay: absorbance at […] nm, initial rate (residual activity assay)
Assay type: biochemical
Settings: 1 mM substrate, 20 mM NaPi, pH 7.4, 150 mM NaCl, 1% DMSO; tag removed

Compound: CCCC(=O)Oc1ccc([N+](=O)[O-])cc1 [para‐nitrophenyl butyrate]
- absorbance at 405 nm, initial rate (residual activity assay): the residual activity was measured by a para‐nitrophenyl butyrate (pNPB) assay
